Results: patent US20240010639A1, “TRIAZINE DIONE DERIVATIVE, PREPARATION METHOD THEREFOR AND APPLICATION THEREOF IN MEDICINE” (Jiangsu Hengrui Pharmaceuticals Co., Ltd., priority 2020, published 2024)

Assay: Identification of reactive metabolites (GSH conjugates) in human liver microsomes
Format: in vitro ADME
Conditions: for Identification of reactive metabolites: Result: human liver microsomes 1 mg/mL, test compound 30 μM, GSH 5 mM, NADPH 1.0 mM, 60 min, 37° C.; for glutathione (GSH) conjugate associated with the compound detected (in words): human liver microsomes, GSH trapping
Protocol: The identification of reactive metabolites of the compound disclosed herein in human liver microsomes was carried out using the experimental method below:
• 1. Phosphate-buffered saline (purchased from Shanghai Sangon) • 2. NADPH (ACROS, A2646-71-1) • 3. Human liver microsome (Corning Gentest, Cat No. 452161, Lot No. 905002) • 4. Thermo UHPLC-Q-Exactive Orbitrap mass spectrometer (Thermo Fisher Scientific) • 5. Acquity BEH C18 column, 2.1×100 mm, 1.7 μm (Waters, USA) • 6. Positive control compound (diclofenac).
• 1. Preparation of test compound solutions: A proper amount of a test compound was precisely measured out and dissolved in a proper amount of DMSO. After the solution was well mixed, a 30 mM stock solution was obtained. A […] stock solution was 10-fold diluted with 50% acetonitrile/water (v/v) to obtain a 3.0 mM working solution 1. The 3.0 mM working solution 1 was 10-fold diluted with PBS to obtain a 300 μM working solution 2, and the solution was stored at 4° C. before use. • 2. Preparation of phosphate-buffered saline: Proper amounts of K2HPO4 and KH2PO4 were measured out and dissolved in 4 L of pure water to prepare a 100 mM buffer, and the pH was then adjusted with phosphoric acid or sodium hydroxide to 7.4. • 3. Preparation of liver microsome solutions: Proper amounts of liver microsome stock solutions of various species (20 mg/mL) were measured out and diluted with the 100 mM phosphate-buffered saline (pH 7.4) to prepare 1.43 mg/mL microsome solutions. • 4. Preparation of NADPH cofactor solution: Proper amounts of NADPH and magnesium chloride were measured out and dissolved in a proper amount of the 100 mM phosphate-buffered saline (pH 7.4) so the concentrations of NADPH and magnesium chloride were 10 mM and 30 mM, respectively, and the solutions were stored for later use. • 5. Preparation of glutathione (GSH) solution: A proper amount of glutathione was measured out and dissolved in a proper amount of the 100 mM phosphate-buffered saline (pH 7.4) so the concentration of GSH was 50 mM, and the solution was stored for later use. • 6. The incubation system is shown below:
To a 1.5 mL centrifuge tube, 20 μL of the 300 μM working solution 2 was precisely transferred and 140 μL of a 1.43 mg/mL liver microsome solution was then added so the concentration of liver microsomal protein in the incubation system was 1 mg/mL. […] The collected data were processed and analyzed using Xcalibur software. According to the exact molecular weight, tandem mass spectrometry fragments were analyzed to see if the compound disclosed herein would be metabolically activated to produce reactive metabolites.

| Identification of reactive metabolites: Result | glutathione (GSH) conjugate associated with the compound detected (in words) | Structure (SMILES) |
| --- | --- | --- |
| Positive | detected | CC(C)n1c(=O)cc(N[C@@H](C)c2ccccc2)[nH]c1=O [MYK-461, reference compound] |
| Negative | no glutathione (GSH) conjugate | Cc1ccc(F)c([C@H](C)Nc2nc(=O)n(C3CCOCC3)c(=O)[nH]2)c1 [Example 16, (S)-6-((1-(2-Fluoro-5-methylphenyl)ethyl)amino)-3-(tetrahydro-2H-pyran-4-yl)-1,3,5-triazine-2,4(1H,3H)-dione] |
